Results published in patent US6603044B1, “Phthalamide derivatives, or salt thereof agrohorticultural insecticide, and method for using the same” (Nihon Nohyaku Co., Ltd., priority 1998, dated 2003).

Key:
[1] = tested on: Diamond Back Moth (Plutella xylostella); assay: Insecticidal effect on diamond back moth (Test Example 1); format: in vivo; settings: 50 ppm; Chinese cabbage seedling with deposited eggs immersed about 30 seconds; 25° C.; six days after the immersion
Source text: Insecticidal Effect on Diamond Back Moth (Plutella xylostella)
Adult diamondback moths were released and allowed to oviposit on a Chinese cabbage seedling. Two days after the release, the seedling having the eggs deposited thereon was immersed for about 30 seconds in a liquid chemical prepared by diluting a preparation containing each compound listed in Table 1, 2 or 3 as an active ingredient to adjust the concentration to 50 ppm. After air-dryness, it was allowed to stand in a room thermostatted at 25° C. Six days after the immersion, the hatched insects were counted. The mortality was calculated according to the following equation and the insecticidal effect was judged according to the criterion shown below. The test was carried out with triplicate groups of 10 insects.

[2] = tested on: Smaller tea Tortrix (Adoxophyes sp.); assay: Insecticidal effect on smaller tea tortrix (Test Example 3); format: in vivo; settings: 50 ppm; tea leaf immersed 30 seconds; larvae; 25° C., humidity 70%; eight days after the inoculation
Method: Insecticidal Effect on Smaller tea Tortrix (Adoxophyes sp.)
A leaf of tea tree was immersed for 30 seconds in a liquid chemical containing each compound listed in Table 1, 2 or 3 as an active ingredient to adjust the concentration to 50 ppm. After air-dryness, the leaf was transferred to a plastic dish with a diameter of 9 cm and inoculated with larval smaller tea tortrix. Then, the leaf was allowed to stand in a room thermostatted at 25° C. at a humidity of 70%. Eight days after the inoculation, the dead and alive were counted, and the insecticidal effect was judged according to the same criterion as mentioned in Test Example 1. The test was carried out with triplicate groups of 10 insects.

Row | Compound | Test Example 1 insecticidal effect (mortality) [1] | Test Example 3 insecticidal effect (mortality) [2]
1 | CCCCSCC(C)NC(=O)c1c(I)cccc1C(=O)Nc1ccc(C(F)(F)C(F)(F)F)cc1C (stereo not drawn) [compound 64] | A (100) | A (100)
2 | CCSCCNC(=O)c1c(I)cccc1C(=O)Nc1ccc(C(F)(F)C(F)(F)F)cc1C [compound 72] | A (100) | A (100)
3 | Cc1cc(OC(F)(F)F)ccc1NC(=O)c1cccc(I)c1C(=O)NC(C)CSC1CCCCC1 (stereo not drawn) [compound 82] | A (100) | A (100)
4 | Cc1cc(C(F)(F)C(F)(F)F)ccc1NC(=O)c1cccc(I)c1C(=O)NC(C)CSC1CCCCC1 (stereo not drawn) [compound 85] | A (100) | A (100)
5 | CSCC(NC(=O)c1c(I)cccc1C(=O)Nc1ccc(C(F)(C(F)(F)F)C(F)(F)F)cc1C)c1ccccc1 (stereo not drawn) [compound 89] | A (100) | A (100)
6 | CSCC(NC(=O)c1c(I)cccc1C(=O)Nc1ccc(C(F)(F)C(F)(F)F)cc1C)c1ccccc1 (stereo not drawn) [compound 90] | A (100) | A (100)
7 | CSCC(C)NC(=O)c1c(C(=O)Nc2ccc(C(F)(F)C(F)(F)F)cc2C)cccc1[N+](=O)[O-] (stereo not drawn) [compound 105] | A (100) | A (100)
8 | CSCC(C)NC(=O)c1ccc(I)cc1C(=O)Nc1ccc(C(F)(F)C(F)(F)F)cc1C (stereo not drawn) [compound 111] | A (100) | B (99-90)
9 | Cc1cc(C(F)(C(F)(F)F)C(F)(F)F)ccc1NC(=O)c1cccc(I)c1C(=O)NC(C)CSC(C)(C)C (stereo not drawn) [compound 117] | A (100) | A (100)
10 | Cc1cc(C(F)(C(F)(F)F)C(F)(F)F)ccc1NC(=O)c1cccc(I)c1C(=O)NC(C[S+](C)[O-])c1ccccc1 (stereo not drawn) [compound 137] | A (100) | A (100)
11 | CSCCCC(C)NC(=O)c1cccc(Cl)c1C(=O)Nc1ccc(C(F)(C(F)(F)F)C(F)(F)F)cc1C (stereo not drawn) [compound 155] | A (100) | A (100)
12 | CSCCC(C)NC(=O)c1c(I)cccc1C(=O)Nc1ccc(OC(F)(F)F)cc1C (stereo not drawn) [compound 164] | A (100) | A (100)
13 | Cc1cc(C(F)(C(F)(F)F)C(F)(F)F)ccc1NC(=O)c1cccc(Cl)c1C(=O)NC(C)(C)CS(C)(=O)=O [compound 171] | A (100) | A (100)
14 | CCS(=O)(=O)CCCCC(C)NC(=O)c1c(I)cccc1C(=O)Nc1ccc(C(F)(F)C(F)(F)F)cc1C (stereo not drawn) [compound 179] | A (100) | A (100)
15 | CCS(=O)(=O)CCCCC(C)NC(=O)c1c(I)cccc1C(=O)Nc1ccc(C(F)(C(F)(F)F)C(F)(F)F)cc1C (stereo not drawn) [compound 180] | A (100) | A (100)
16 | CSCCSCC(C)NC(=O)c1c(I)cccc1C(=O)Nc1ccc(OC(F)(F)F)cc1C (stereo not drawn) [compound 190] | A (100) | A (100)
17 | CC[S+]([O-])CCCC(C)NC(=O)c1c(I)cccc1C(=O)Nc1ccc(C(F)(C(F)(F)F)C(F)(F)F)cc1C (stereo not drawn) [compound 202] | A (100) | A (100)

Row | Compound | Test Example 1 insecticidal effect (mortality) [1] | Test Example 3 insecticidal effect (mortality) [2]
18 | CCS(=O)(=O)CCCC(C)NC(=O)c1c(Br)cccc1C(=O)Nc1ccc(C(F)(C(F)(F)F)C(F)(F)F)cc1C (stereo not drawn) [compound 215] | A (100) | A (100)
19 | CSCC(C)NC(=O)c1c(C(=O)Nc2ccc(Oc3ncc(C(F)(F)F)cc3Cl)cc2C)cccc1[N+](=O)[O-] (stereo not drawn) [compound 224] | A (100) | A (100)
20 | CSCC(C)(C)NC(=O)c1c(C(=O)Nc2ccc(OC(F)(F)F)cc2C)ccc2c1OCO2 [compound 252] | A (100) | A (100)
21 | CSC1CCCCC1NC(=O)c1c(I)cccc1C(=O)Nc1ccc(C(F)(C(F)(F)F)C(F)(F)F)cc1C (stereo not drawn) [compound 273] | A (100) | C (89-80)
22 | Cc1cc(OC(F)(F)F)ccc1NC(=O)c1ccc2c(c1C(=O)NC(C)(C)CS(C)(=O)=O)OC(F)(F)O2 [compound 293] | A (100) | A (100)
23 | CSCNC(=O)c1ccccc1C(=O)Nc1ccc(C(F)(C(F)(F)F)C(F)(F)F)cc1C [compound 298] | A (100) | A (100)
24 | Cc1cc(C(F)(C(F)(F)F)C(F)(F)F)ccc1NC(=O)c1cccc(I)c1C(=O)NC(C)CSC(=S)N(C)C (stereo not drawn) [compound 302] | A (100) | A (100)
25 | Cc1cc(C(F)(C(F)(F)F)C(F)(F)F)ccc1NC(=O)c1cccc(I)c1C(=O)NC(C)CSc1nc2ccccc2s1 (stereo not drawn) [compound 319] | A (100) | A (100)
26 | CSCC(C)(C)NC(=O)c1c(C(=O)Nc2ccc(Cl)cc2Cl)cccc1[N+](=O)[O-] [compound 326] | A (100) | A (100)
27 | Cc1cc(C(F)(C(F)(F)F)C(F)(F)F)ccc1NC(=O)c1cccc([N+](=O)[O-])c1C(=O)NC(C)(C)C[S+](C)[O-] (stereo not drawn) [compound 327] | A (100) | A (100)
28 | CSC1CCCC1NC(=O)c1c(I)cccc1C(=O)Nc1ccc(C(F)(C(F)(F)F)C(F)(F)F)cc1C (stereo not drawn) [compound 329] | A (100) | A (100)
29 | CSCC(C)NC(=O)c1cc2ccccc2cc1C(=O)Nc1ccc(C(F)(C(F)(F)F)C(F)(F)F)cc1C (stereo not drawn) [compound 332] | A (100) | A (100)
30 | Cc1cc(C(F)(C(F)(F)F)C(F)(F)F)ccc1NC(=O)c1ccc2ccccc2c1C(=O)NC(C)C[S+](C)[O-] (stereo not drawn) [compound 334] | A (100) | A (100)
31 | Cc1cc(C(F)(C(F)(F)F)C(F)(F)F)ccc1NC(=O)c1ccc2ccccc2c1C(=O)NC(C)CS(C)(=O)=O (stereo not drawn) [compound 335] | A (100) | D (79-50)
32 | Cc1cc(C(F)(C(F)(F)F)C(F)(F)F)ccc1NC(=O)c1cccc(I)c1C(=O)NC(C)C[S+]([O-])c1nc2ccccc2s1 (stereo not drawn) [compound 344] | A (100) | A (100)
33 | Cc1cc(C(F)(C(F)(F)F)C(F)(F)F)ccc1NC(=O)c1cccc(I)c1C(=O)NC(C)CSc1nccs1 (stereo not drawn) [compound 352] | A (100) | A (100)
